# Results reported in US4213998A, “Inhibition of lipogenesis” (Shell Oil Company, priority 1979, dated 1980).
# Test system: swine adipose tissue
# Test: Inhibition of lipogenesis (incorporation of 14C-glucose into lipid) in swine adipose tissue slices
# Assay type: cell-based
# Settings: Sus scrofa, 100 micrograms per milliliter, 37° C., 2 hours, glucose-U-14C, insulin, 5% DMSO, triplicate, read-out: Percent Inhibition of lipogenesis compared to control
# Source text: The manner in which they cause this effect is not known with certainty; it is believed that they interfere with the synthesis of fatty acids in the tissues. Their effectiveness for this purpose has been ascertained by immersing sales of swine adipose tissue in a liquid medium containing radioactive glucose and the test chemical for a period of time, then isolating the lipid from the treated tissue and determining the incorporation of the radioactive carbon into lipid by means of scintillation counting techniques. These tests were conducted in swine adipose tissues because in swine, the primary site of lipogenesis--i.e., fatty acid synthesis--appears to be adipose tissue.
# Described in more detail, the tests were conducted according to the following general procedure:
# 150 milligrams of slices of swine adipose tissue were incubated at 37° C. for 2 hours with shaking in 3 milliliters of Krebs-Ringer bicarbonate solution containing one-half the normal calcium ion concentration, 60 micromoles of glucose, 0.5 micro-Curie of glucose-U^14 C, and 300 microunits of insulin, and 5% dimethylsulfoxide (DMSO). The test compounds were added as a solution or suspension in DMSO and were present at a concentration of 100 micrograms per milliliter of the incubation mixture.
# The incubation was terminated by addition of 0.25 milliliter of 1 N sulfuric acid. The resulting mixture was extracted with a total of 25 milliliters of chloroform/methanol (2:1 v/v). The extracts were washed according to Folch et al. (J. Biol. Chem. 226, 497-509, (1957)), air dried, and counted in a liquid scintillation counter with 15 milliliters of counting fluid (two parts toluene containing 0.4% w/v New England Nuclear Omnifluor/1part Triton X-100). The tests were conducted in triplicate and were accompanied by control tests in which all ingredients,proportions and conditions were the same except that no test compound was included. From the data obtained were calculated the precent inhibition of lipid synthesis by the test compounds in each case. The data obtained from the tests are set out in Table 1,as the percent inhibition of lipogenesis compared to the results obtained in the control tests wherein only the test compound was omitted.
row,SMILES,inhibition at 100 µg/mL [%]
1,"O=C(O)c1cc2c(Oc3ccccc3)cccc2o1 [Compound 9, 4-phenoxy-2-benzofurancarboxylic acid]",83
2,O=C(O)C1Cc2cc(Cc3ccccc3)ccc2O1 (stereo not drawn) [Compound 20],40
3,O=C(O)c1cc2cc(C3CCCCC3)ccc2o1 [Compound 4],91
4,O=C(O)C1Cc2cc(-c3ccc(Cl)cc3)ccc2O1 (stereo not drawn) [Compound 24],56
5,O=C(O)c1cc2cc(Cc3ccccc3)ccc2o1 [Compound 8],87
6,COc1ccc2cc(C(=O)O)oc2c1OC [Compound 14],24
7,"O=C(O)c1cc2cc(-c3ccc(Cl)cc3)ccc2o1 [Compound 12, 5-(4-chlorophenyl)-2-benzofurancarboxylic acid]",55
8,O=C(O)c1cc2cccc(Cl)c2o1 [Compound 15],59
9,CCC(C)c1ccc2c(c1)CC(C(=O)O)O2 (stereo not drawn) [Compound 18],35
10,COc1cccc2cc(C(=O)O)oc12 [Compound 13],22
11,O=C(c1ccccc1)c1ccc2oc(C(=O)O)cc2c1 [Compound 6],44
12,CCC(C)c1ccc2oc(C(=O)O)cc2c1 (stereo not drawn) [Compound 3],64
13,O=C(O)c1cc2ccc(Oc3ccccc3)cc2o1 [Compound 5],86
14,"CC(=O)c1ccc(-c2ccc3oc(C(=O)O)cc3c2)cc1 [Compound 10, 5-(4-acetylphenyl)-2-benzofurancarboxylic acid]",41
15,CCCCCCOc1ccc2oc(C(=O)O)cc2c1 [Compound 7],78
16,"O=C(O)C1Cc2cc(-c3ccccc3)ccc2O1 (stereo not drawn) [Compound 2, 2,3-dihydro-5-phenyl-2-benzofurancarboxylic acid]",50
17,"O=C(O)c1cc2cc(-c3ccccc3)ccc2o1 [Compound 1, 5-phenyl-2-benzofurancarboxylic acid]",49
18,O=C(O)C1Cc2cc(C3CCCCC3)ccc2O1 (stereo not drawn) [Compound 19],72
19,"COc1ccc(-c2ccc3oc(C(=O)O)cc3c2)cc1 [Compound 17, 5-(4-methoxyphenyl)-2-benzofurancarboxylic acid]",56
20,O=C(O)C1Cc2ccc(Oc3ccccc3)cc2O1 (stereo not drawn) [Compound 22],62
21,"O=C(O)c1cc2cc(-c3ccc(O)cc3)ccc2o1 [Compound 16, 5-(4-hydroxyphenyl)-2-benzofurancarboxylic acid]",30
22,"CC(=O)Oc1ccc(-c2ccc3oc(C(=O)O)cc3c2)cc1 [Compound 11, 5-(4-(acetyloxy)phenyl)-2-benzofurancarboxylic acid]",80
23,CCCCCCOc1ccc2c(c1)CC(C(=O)O)O2 (stereo not drawn) [Compound 21],49
24,O=C(O)C1Cc2c(Oc3ccccc3)cccc2O1 (stereo not drawn) [Compound 23],27
